Measurements published in US20110111976A1, “MICRORNA BIOMARKERS OF TISSUE INJURY” (priority 2008, published 2011).
Several values for one entry are separate records, joined by “and”; a condition that tells them apart may be missing. Identical values can stand only once.

Legend:
[1] = test system: Sprague-Dawley rats; experiment: miR-10a in urine of kidney-toxicant-treated rats by qPCR; type: in vivo, rat; conditions: Gentamicin 240 mg/kg/day intraperitoneal, individual male rats
Description: (§1) Animals Male and female Sprague-Dawley rats were obtained from Charles River Laboratories, Inc. (Raleigh, N.C.). The rats were approximately seven to eight weeks of age and weighed from 125 to 325 grams at the start of the study. The animals were acclimated for approximately one week and randomized into treatment and control groups. During the toxicity studies targeting kidney, the animals were maintained on a caloric-restricted diet, and fasted overnight prior to necropsy. Doses were different for each model compound tested and were calculated based on animal body weight. For the compounds, routes of administration, dose groups, and time points, see the below Test Compound section.
Urine Samples Urine samples were collected overnight on either dry or wet ice, aliquoted, and stored at −70° C. […] Urine samples were thawed on ice and about 1 milliliter (ml) of each sample placed into a tube. Each sample was placed in a room temperature speed-vac to reduce sample volume to about 200 microliters (μl). About 1 ml of trizol was added to the viscous concentrated urine solution and RNA extracted using Ambion BlycoBlue and alcohol precipitation.
Samples from rat toxicology studies were analyzed for miRNA levels using a qPCR-based assay (Raymond et al, 2005, RNA 11:1737; WO 2006/081282). Control slope and intercept values for miR-10a was calculated from a concentration series of miR-10a added to total yeast RNA and then analyzed using the qPCR assay. The slope and intercept values from the standard curve were used to calculate the amount of miR-10a in each sample expressed as the number of miRNA copies per 20 ng of total RNA in each sample. Cycle threshold values (Ct) for each sample were converted to miRNA copy numbers by comparison to a standard curve generated using single stranded mature miR-10a and are expressed in Table 7 as copies/20 pg input RNA (approximately equivalent to copies/cell).

[2] = test system: Sprague-Dawley rats; experiment: Kidney histopathology (proximal tubule overall tissue injury) of toxicant-treated rats; type: in vivo, rat; conditions: Gentamicin 240 mg/kg/day intraperitoneal, Day 12, individual male rats
Description: as §1

[3] = test system: Sprague-Dawley rats; experiment: Pooled sample study: miR-122 in blood plasma of toxicant-treated rats by qPCR; type: in vivo; conditions: pooled rat plasma (5 samples), cerivastatin 1.0 mg/kg/day oral Day 14, CBrCl3 0.1 ml/kg oral Days 2 & 4, TMPD 6 mg/kg bid s.c. Day 3
Description: (§2) To explore the feasibility of detecting miRNA tissue injury biomarkers in plasma, a pilot study was performed in which pooled blood plasma samples from rat toxicology studies were analyzed using a qPCR-based assay (Raymond et at, 2005, RNA 11:1737; WO 2006/081282). The miRNAs miR-122 and miR-133 were chosen for quantification because they are extremely abundant and specific to liver and muscle, respectively (FIG. 1). Stored plasma samples from rats that had previously been treated with a liver damaging agent trichlorobromomethane (CBrCl3) or with one of two muscle damaging agents 2,3,5,6-tetramethyl-p phenylenediamine (TMPD) or cerivastatin) were assayed form miRNA levels using qPCR.
as §1, with “liver,” for “kidney,”, “compound” for “Test Compound”
(§3) Skeletal Muscle Toxicant • 2,3,5,6-tetramethyl-p phenylenediamine (TMPD) • Doses: 6 mg/kg bid • Dosing: 0.9% NaCl by subcutaneous injection • Animals: Sprague Dawley Male Rats • Time Points Day 3, TMPD Plasma (Day 3) and Controls (5 samples, 100 ul each pooled=500 ul total).
(§4) Liver Toxicant • Trichlorbromomethane (CCl3Br) • Doses: 0.1 ml/kg • Dosing: 100% liquid paraffin by oral gavage • Animals: Sprague Dawley Male Rats • Time Point: Day 2, 4 CCl3Br Plasma (Days 2 & 4) and Controls (5 samples, 100 ul each pooled=500 ul total)
(§5) Liver and Muscle Toxicant • Cerivastatin • Doses: 1.0 mg/kg/day • Dosing: 0.5% methylcellulose by oral gavage • Animals: Sprague Dawley Female Rats • Time Point Day 14 Cerivastatin Plasma (Day 14) and Controls (5 samples, 100 ul each pooled=500 μl total)
(§6) Plasma Samples All plasma samples were collected in EDTA tubes at final necropsy from the vena cava. Samples were inverted several times, and centrifuged for 20 minutes at 2,900 RPM at 4° C. Plasma samples were removed and stored at −70° C. Pooled blood plasma samples from rat toxicology studies were analyzed using a qPCR-based assay (Raymond et al, 2005, RNA 11:1737; WO 2006/081282). Control slope and intercept values for miR-122 and miR-133 were calculated from a concentration series of each microRNA added to total yeast RNA and then analyzed using the qPCR assay for each miRNA. The slope and intercept values from the standard curve were used to calculate the amount of each respective miRNA in each sample expressed as the number of miRNA copies per 20 ng of total RNA in each sample. Cycle threshold values (Ct) for each sample were converted to miRNA copy numbers by comparison to standard curves generated using single stranded mature miRNAs and are expressed as copies/20 pg input RNA (approximately equivalent to copies/cell).

[4] = test system: Sprague-Dawley rats; experiment: Pooled sample study: miR-133 in blood plasma of toxicant-treated rats by qPCR; type: in vivo; conditions: pooled rat plasma (5 samples), cerivastatin 1.0 mg/kg/day oral Day 14, CBrCl3 0.1 ml/kg oral Days 2 & 4, TMPD 6 mg/kg bid s.c. Day 3
Description: as §2
as §1, with “liver,” for “kidney,”, “compound” for “Test Compound”
as §3, §4, §5, §6

[5] = test system: Sprague-Dawley rats; experiment: Individual sample study: miR-122 in blood plasma of toxicant-treated rats by qPCR; type: in vivo, rat; conditions: Day 2, plasma, individual male rats
Description: (§7) To follow up on the initial results shown in Example 2, blood samples from 44 individual rats that had been treated with varying doses of CBrCl3, CCl4 (another liver toxicant), or TMPD were evaluated using qPCR of miR-122 and miR-133. In addition, data from histopathology and a panel of standard biomarkers (ALT, AST, CK, skTnI, etc.) were also available for these same individual rats and were used to compare the results from microRNA assays with the standard histopathology and protein biomarkers.
as §1, with “liver,” for “kidney,”, “compound” for “Test Compound”
(§8) Skeletal Muscle Toxicant • 2,3,5,6-tetramethyl-p phenylenediamine (TMPD) • Doses: 2, 4 mg/kg bid • Dosing: 0.9% NaCl by subcutaneous injection • Animals: Sprague Dawley Male Rats • Time Points: TMPD Plasma (Day 2) and Controls (5 samples per group, […] pooled=500 μl total).
(§9) Liver Toxicant • Trichlorobromomethane (CCl3Br) • Doses: 0.03, 0.1 ml/kg • Dosing: 100% liquid paraffin by oral gavage • Animals: Sprague Dawley Male Rats • Time Point: CCl3Br Plasma (Days 2 & 4) and Controls (4 controls, 3 samples per group, 100 μl each) • Carbon Tetrachloride (CCl4) • Doses: 0.03, 0.1, 0.3 ml/kg • Dosing: 100% liquid paraffin by oral gavage • Animals: Sprague Dawley Male Rats • Time Point: CCl4 Plasma (Days 2) and Controls (4 samples per group, 100 μl each)
as §6, with “are expressed in Table 4 as copies/20” for “are expressed as copies/20”

[6] = test system: Sprague-Dawley rats; experiment: Individual sample study: miR-133 in blood plasma of toxicant-treated rats by qPCR; type: in vivo, rat; conditions: Day 2, plasma, individual male rats
Description: as §7
as §1, with “liver,” for “kidney,”, “compound” for “Test Compound”
as §8, §9
as §6, with “are expressed in Table 4 as copies/20” for “are expressed as copies/20”

[7] = test system: Sprague-Dawley rats; experiment: Clinical chemistry (AST, ALT, CK) in blood plasma of toxicant-treated rats; type: in vivo, rat; conditions: for ALT / AST / CK: Day 2, plasma, individual male rats
Description: as §7
as §1, with “liver,” for “kidney,”, “compound” for “Test Compound”
as §8, §9

[8] = test system: Sprague-Dawley rats; experiment: Liver histopathology scores of toxicant-treated rats; type: in vivo, rat; conditions: TMPD-treated rats
Description: as §7
as §1, with “liver,” for “kidney,”, “compound” for “Test Compound”
as §9

[9] = test system: Sprague-Dawley rats; experiment: Muscle histopathology (quad, soleus) of TMPD-treated rats; type: in vivo, rat; parameters: key: 1 = very slight; 2 = slight or small; 3 = moderate; 4 = marked; 5 = severe tissue injury; conditions: Day 2, individual male rats
Description: as §7
as §1, with “liver,” for “kidney,”, “compound” for “Test Compound”
as §8

Gentamicin
miR-10a ([1]; Day 3, urine): 11.98 copies/20 pg input RNA and 3.51 copies/20 pg input RNA and 0.03 copies/20 pg input RNA and 0.05 copies/20 pg input RNA and 10.00 copies/20 pg input RNA
miR-10a ([1]; Day 9, urine): 0.96 copies/20 pg input RNA and 0.64 copies/20 pg input RNA and 16.88 copies/20 pg input RNA and 51.03 copies/20 pg input RNA and 6.61 copies/20 pg input RNA and 4.90 copies/20 pg input RNA and 58.70 copies/20 pg input RNA and 38.01 copies/20 pg input RNA and 25.61 copies/20 pg input RNA
miR-10a ([1]; Day 12, urine): 3.5 copies/20 pg input RNA and 9.46 copies/20 pg input RNA and 4.17 copies/20 pg input RNA and 2.13 copies/20 pg input RNA and 4.99 copies/20 pg input RNA and 3.46 copies/20 pg input RNA and 3.86 copies/20 pg input RNA and 23.75 copies/20 pg input RNA and 10.40 copies/20 pg input RNA
Kidney Histopathology: Proximal tubule overall tissue injury (highest severity grade measured at Day 12) [2]: 5

Cc1c(C)c(N)c(C)c(C)c1N [TMPD, 2,3,5,6-tetramethyl-p phenylenediamine]
miR-122 Copies ([3]; 250 ng total RNA input): 89353.3
miR-122 Ct Mean ([3]; 250 ng total RNA input): 26.2479
miR-122 Copies/20 pg [3]: 7.1 Copies/20 pg
miR-133 Copies ([4]; 250 ng total RNA input): 4753175
miR-133 Ct Mean ([4]; 250 ng total RNA input): 23.7323
miR-133 Copies/20 pg [4]: 380.3 Copies/20 pg
miR-122 ([5]; TMPD 2 mg/kg bid subcutaneous): 2.6 copies/20 pg input RNA and 5.6 copies/20 pg input RNA and 7.3 copies/20 pg input RNA and 0.8 copies/20 pg input RNA and 2.2 copies/20 pg input RNA
miR-122 ([5]; TMPD 4 mg/kg bid subcutaneous): 9.5 copies/20 pg input RNA and 1.8 copies/20 pg input RNA and 15.7 copies/20 pg input RNA and 11.7 copies/20 pg input RNA and 3.2 copies/20 pg input RNA
miR-133 ([6]; TMPD 2 mg/kg bid subcutaneous): 0.9 copies/20 pg input RNA and 4.3 copies/20 pg input RNA and 9.3 copies/20 pg input RNA and 1.3 copies/20 pg input RNA and 4.1 copies/20 pg input RNA
miR-133 ([6]; TMPD 4 mg/kg bid subcutaneous): 19.3 copies/20 pg input RNA and 63.9 copies/20 pg input RNA and 79.3 copies/20 pg input RNA and 63.8 copies/20 pg input RNA and 16.7 copies/20 pg input RNA
ALT ([7]; TMPD 2 mg/kg bid subcutaneous): 29 U/L and 36 U/L and 37 U/L and 27 U/L and 30 U/L
AST ([7]; TMPD 2 mg/kg bid subcutaneous): 120 U/L and 164 U/L and 203 U/L and 111 U/L and 167 U/L
CK ([7]; TMPD 2 mg/kg bid subcutaneous): 424 U/L and 695 U/L and 696 U/L and 450 U/L and 463 U/L
ALT ([7]; TMPD 4 mg/kg bid subcutaneous): 60 U/L and 133 U/L and 215 U/L and 94 U/L and 56 U/L
AST ([7]; TMPD 4 mg/kg bid subcutaneous): 357 U/L and 1250 U/L and 1740 U/L and 700 U/L and 501 U/L
CK ([7]; TMPD 4 mg/kg bid subcutaneous): 363 U/L and 767 U/L and 1252 U/L and 439 U/L and 343 U/L
ALT versus controls ([7]; rats dosed with TMPD, plasma): significantly elevated
AST versus controls ([7]; rats dosed with TMPD, plasma): significantly elevated
liver histopathology [8]: no liver histopathology has been observed
Muscle Histopathology Quad (Overall Damage) ([9]; TMPD 2 mg/kg bid subcutaneous): 0 (4×) and 1
Muscle Histopathology Soleus (Overall Damage) ([9]; TMPD 2 mg/kg bid subcutaneous): 0
Muscle Histopathology Quad (Overall Damage) ([9]; TMPD 4 mg/kg bid subcutaneous): 1 (3×) and 2 (2×)
Muscle Histopathology Soleus (Overall Damage) ([9]; TMPD 4 mg/kg bid subcutaneous): 1 (3×) and 0 (2×)
